What all share (assay): Viability assay (MTT, Alamar Blue, hexosaminidase), 72 h
Holding throughout (assay type): cell-based

Experiment [1] deals with MM.1S, B Lymphoblast (multiple myeloma). The following applies: MM.1S cells, read-out: EC50. Put shortly:
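MM.1S cells (RPMI-1640, 10% FBS, 2 mM glutamine, 37 °C) were seeded at 10000 cells/well and dosed after 24 h, starting at 100 μM with 1:1 serial dilutions, in triplicate, for 72 h. Viability was read sequentially by MTT (570 nm), Alamar Blue (535/590) and hexosaminidase (pH 5.0). Values were normalized to control (100%), and EC50 came from a variable-slope sigmoidal fit.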

The target in experiment [2] is HL-60, promyeloblast (acute myelocytic leukemia, AML). The note with it: HL-60 cells, read-out: EC50. Put shortly: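 HL-60 seeded at 10000 cells/well in RPMI-1640/10% FBS, dosed after 24 h from 100 μM top concentration in 1:1 serial dilutions, incubated 72 h at 37° C. Viability read consecutively by MTT, Alamar Blue and hexosaminidase, normalised to untreated cells; EC50 from variable-slope sigmoidal fit, triplicates.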

In experiment [3] the target is RAMOS, B lymphocyte (Burkitt's Lymphoma). The note with it: Ramos cells, read-out: EC50. Put shortly:
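Ramos cells seeded at 10000 cells/well in DMEM + 10% FBS; after 24 h, compounds added as 1:1 serial dilutions from 100 μM and incubated 72 h at 37 °C. Viability read sequentially by MTT (A570), Alamar Blue (535/590) and hexosaminidase activity, normalized to untreated cells; EC50 from variable-slope sigmoidal fit.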

The target of experiment [4] is MCF-7, epithelial (breast cancer). The note with it: MCF7 cells, read-out: EC50. Put shortly: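 Cells seeded at 5000/well, compounds added 24 h later from 100 μM in 1:1 serial dilutions, triplicate, 72 h at 37° C. Viability read consecutively by MTT (A570), Alamar Blue fluorescence and hexosaminidase activity, normalized to untreated control = 100%; EC50 from variable-slope sigmoidal fit.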

Take RQRRNXLKRAFAXLRDQ-OH [IDP-S03]: the concentration giving a half-maximal response (EC50) in experiment [1] was about 14 µM; in experiment [2], about 6.6 µM; in experiment [3], about 13 µM; in experiment [4] it was 32 ± 5 µM.

The record behind these values is patent US11207379B2, “Peptides with anti-cancer activity” (IDP DISCOVERY PHARMA, S.L., priority 2016, dated 2021).
